# Measured values published in patent US8247211B2, “Glycopeptide antibiotics” (American Cyanamid Company, priority 2001, dated 2012).
# What was measured:
# Assay in all cases: In vitro antibacterial evaluation: minimum inhibitory concentration (MIC), broth dilution method
# Assay type in all cases: cell-based
# Staphylococcus sp. = conditions: for MIC Staphylococcus aureus (ATCC 29213): strain ATCC 29213; for MIC Staphylococcus aureus (GC 1131): strain GC 1131; for MIC Staphylococcus aureus (GC 3051): strain GC 3051; for MIC Staphylococcus aureus (GC 3053): strain GC 3053; for MIC Staphylococcus aureus (GC 4541): strain GC 4541; for MIC Staphylococcus aureus (GC 4542): strain GC 4542; for MIC Staphylococcus aureus (GC 4544): strain GC 4544; for MIC Staphylococcus aureus (GC 4545): strain GC 4545
# Summary of the method: (§1)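 Values are minimum inhibitory concentrations, meaning the smallest antibiotic concentration that stops growth of the organism. They come from broth dilution in Muller-Hinton II […] per NCCLS guidance (M7-A2), using 5×10^5 CFU/mL and concentrations from 64 to 0.06 μg/mL.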
# Enterococcus sp. = conditions: 18 hours at 35° C.
# Summary of the method: as §1
# Escherichia coli = conditions: 18 hours at 35° C.
# Summary of the method: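 Susceptibility determined by NCCLS-recommended broth dilution (M7-A2), Muller-Hinton II […]. Concentration span 64-0.06 μg/mL, inoculum 5×10^5 CFU/mL. Isolates include strains resistant to methicillin, penicillin and/or vancomycin.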
# Streptococcus sp. = conditions: 18 hours at 35° C.
# Summary of the method: as §1
# [1] = broth dilution, 5×10^5 CFU/mL, 18 hours at 35° C.
# [2] = broth dilution, 18 hours at 35° C.
# [3] = broth dilution, inoculum 5×10^5 CFU/mL
smiles,measurement,setting,value
CC(c1ccccc1)C1NC(=O)CNC(=O)C(CO)NC(=O)C(C(O)C2CNC(=N)N2C2OC(CO)C(O)C(O)C2O)NC(=O)C(C(O)C2CNC(=N)N2)NC(=O)C(Cc2ccc(OC3OC(CO)C(OC4OC5COC(CC67CC8CC(CC(C8)C6)C7)OC5C(O)C4O)C(O)C3O)cc2)NC1=O (stereo not drawn) [Example 129],MIC Coagulase Negative Staphylococcus (GC 4547),Staphylococcus sp.; [1],2 µg/mL
same,MIC Coagulase Negative Staphylococcus (GC 4548),Staphylococcus sp.; [1],1 µg/mL
same,MIC Coagulase Negative Staphylococcus (GC 4549),Staphylococcus sp.; [1],1 µg/mL
same,MIC Coagulase Negative Staphylococcus (GC 4551),Staphylococcus sp.; [1],4 µg/mL
same,MIC Coagulase Negative Staphylococcus (GC 6257),Staphylococcus sp.; [1],1 µg/mL
same,MIC Staphylococcus aureus-SMITH (GC 4543),Staphylococcus sp.; [1],2 µg/mL
same,MIC Staphylococcus haemolyticus (GC 4546),Staphylococcus sp.; [1],2 µg/mL
same,MIC Staphylococcus aureus (ATCC 29213),Staphylococcus sp.,4 µg/mL
same,MIC Staphylococcus aureus (ATCC 29213),Staphylococcus sp.; [2],4 µg/mL
same,MIC Staphylococcus aureus (GC 1131),Staphylococcus sp.,2 µg/mL
same,MIC Staphylococcus aureus (GC 1131),Staphylococcus sp.; [2],2 µg/mL
same,MIC Staphylococcus aureus (GC 3051),Staphylococcus sp.,2 µg/mL
same,MIC Staphylococcus aureus (GC 3051),Staphylococcus sp.; [2],2 µg/mL
same,MIC Staphylococcus aureus (GC 3053),Staphylococcus sp.,2 µg/mL
same,MIC Staphylococcus aureus (GC 3053),Staphylococcus sp.; [2],2 µg/mL
same,MIC Staphylococcus aureus (GC 4541),Staphylococcus sp.,2 µg/mL
same,MIC Staphylococcus aureus (GC 4541),Staphylococcus sp.; [2],2 µg/mL
same,MIC Staphylococcus aureus (GC 4542),Staphylococcus sp.,2 µg/mL
same,MIC Staphylococcus aureus (GC 4542),Staphylococcus sp.; [2],2 µg/mL
same,MIC Staphylococcus aureus-SMITH (GC 4543),"Staphylococcus sp.; strain GC 4543, broth dilution, 18 hours at 35° C.",2 µg/mL
same,MIC Staphylococcus aureus (GC 4544),Staphylococcus sp.,2 µg/mL
same,MIC Staphylococcus aureus (GC 4544),Staphylococcus sp.; [2],2 µg/mL
same,MIC Staphylococcus aureus (GC 4545),Staphylococcus sp.,2 µg/mL
same,MIC Staphylococcus aureus (GC 4545),Staphylococcus sp.; [2],2 µg/mL
same,MIC Staphylococcus haemolyticus (GC 4546),"Staphylococcus sp.; strain GC 4546, broth dilution, 18 hours at 35° C.",2 µg/mL
same,MIC Coagulase Negative Staphylococcus (GC 4547),"Staphylococcus sp.; strain GC 4547, broth dilution, 18 hours at 35° C.",2 µg/mL
same,MIC Coagulase Negative Staphylococcus (GC 4548),"Staphylococcus sp.; strain GC 4548, broth dilution, 18 hours at 35° C.",1 µg/mL
same,MIC Coagulase Negative Staphylococcus (GC 4549),"Staphylococcus sp.; strain GC 4549, broth dilution, 18 hours at 35° C.",1 µg/mL
same,MIC Coagulase Negative Staphylococcus (GC 4551),"Staphylococcus sp.; strain GC 4551, broth dilution, 18 hours at 35° C.",4 µg/mL
same,MIC Coagulase Negative Staphylococcus (GC 6257),"Staphylococcus sp.; strain GC 6257, broth dilution, 18 hours at 35° C.",1 µg/mL
same,MIC Enterococccus avium (GC 4558),"Enterococcus sp.; broth dilution, 5×10^5 CFU/mL",2 µg/mL
same,MIC Enterococccus faecalis (ATCC 29212),"Enterococcus sp.; broth dilution, 5×10^5 CFU/mL",2 µg/mL
same,MIC Enterococccus faecalis (GC 2691),"Enterococcus sp.; broth dilution, 5×10^5 CFU/mL",2 µg/mL
same,MIC Enterococccus faecalis (GC 3059),"Enterococcus sp.; broth dilution, 5×10^5 CFU/mL",2 µg/mL
same,MIC Enterococccus faecalis (GC 4552),"Enterococcus sp.; broth dilution, 5×10^5 CFU/mL",2 µg/mL
same,MIC Enterococccus faecalis (GC 4553),"Enterococcus sp.; broth dilution, 5×10^5 CFU/mL",2 µg/mL
same,MIC Enterococccus faecalis (GC 4554),"Enterococcus sp.; broth dilution, 5×10^5 CFU/mL",2 µg/mL
same,MIC Enterococccus faecalis (GC 6189),"Enterococcus sp.; broth dilution, 5×10^5 CFU/mL",2 µg/mL
same,MIC Enterococccus faecium (GC 2243),"Enterococcus sp.; broth dilution, 5×10^5 CFU/mL",2 µg/mL
same,MIC Enterococccus faecium (GC 4556),"Enterococcus sp.; broth dilution, 5×10^5 CFU/mL",2 µg/mL
same,MIC Enterococccus faecium (GC 4557),"Enterococcus sp.; broth dilution, 5×10^5 CFU/mL",2 µg/mL
same,MIC Enterococcus faecalis (GC 2242),"Enterococcus sp.; broth dilution, 5×10^5 CFU/mL",2 µg/mL
same,MIC Escherichia coli (ATCC 25922),Escherichia coli; 5×10^5 CFU/mL,32 µg/mL
same,MIC Escherichia coli (GC 4559),Escherichia coli; 5×10^5 CFU/mL,32 µg/mL
same,MIC Escherichia coli (GC 4560),Escherichia coli; 5×10^5 CFU/mL,2 µg/mL
same,MIC Streptococcus agalactiae (GC 4564),"Streptococcus sp.; broth dilution, 5×10^5 CFU/mL",<0.06 µg/mL
same,MIC Streptococcus pneumoniae (GC 1894),"Streptococcus sp.; broth dilution, 5×10^5 CFU/mL",<0.06 µg/mL
same,MIC Streptococcus pneumoniae (GC 4565),"Streptococcus sp.; broth dilution, 5×10^5 CFU/mL",<0.06 µg/mL
same,MIC Streptococcus pneumonine (ATCC 6301),"Streptococcus sp.; broth dilution, 5×10^5 CFU/mL",<0.06 µg/mL
same,MIC Streptococcus pyogenes (GC 4563),"Streptococcus sp.; broth dilution, 5×10^5 CFU/mL",<0.06 µg/mL
"CC(c1ccccc1)C1NC(=O)CNC(=O)C(CO)NC(=O)C(C(O)C2CNC(=N)N2C2OC(CO)C(O)C(O)C2O)NC(=O)C(C(O)C2CNC(=N)N2)NC(=O)C(Cc2ccc(OC3OC(CO)C(OC4OC5COC6(CCCCC6)OC5C(O)C4O)C(O)C3O)cc2)NC1=O (stereo not drawn) [Example 203, Cyclo[glycyl-β-methylphenylalanyl-O-[4-O-(4,6-O-cyclohexylidene-4-O-hexopyranosyl)hexopyranosyl]tyrosyl-3-(2-iminoimidazolidin-4-yl)seryl-3-(3-hexopyranosyl-2-iminoimidazolidin-4-yl)serylseryl]]",MIC Staphylococcus aureus (ATCC 29213),Staphylococcus sp.,1 µg/mL
same,MIC Staphylococcus aureus (GC 1131),Staphylococcus sp.,2 µg/mL
same,MIC Staphylococcus aureus (GC 3051),Staphylococcus sp.,2 µg/mL
same,MIC Staphylococcus aureus (GC 3053),Staphylococcus sp.,4 µg/mL
same,MIC Staphylococcus aureus (GC 4541),Staphylococcus sp.,1 µg/mL
same,MIC Staphylococcus aureus (GC 4542),Staphylococcus sp.,1 µg/mL
same,MIC Staphylococcus aureus-SMITH (GC 4543),Staphylococcus sp.; strain GC 4543,2 µg/mL
same,MIC Staphylococcus aureus (GC 4544),Staphylococcus sp.,2 µg/mL
same,MIC Staphylococcus aureus (GC 4545),Staphylococcus sp.,1 µg/mL
same,MIC Staphylococcus haemolyticus (GC 4546),Staphylococcus sp.; strain GC 4546,1 µg/mL
same,MIC Coagulase Negative Staphylococcus (GC 4547),Staphylococcus sp.; strain GC 4547,2 µg/mL
same,MIC Coagulase Negative Staphylococcus (GC 4548),Staphylococcus sp.; strain GC 4548,1 µg/mL
same,MIC Coagulase Negative Staphylococcus (GC 4549),Staphylococcus sp.; strain GC 4549,1 µg/mL
same,MIC Coagulase Negative Staphylococcus (GC 4551),Staphylococcus sp.; strain GC 4551,2 µg/mL
same,MIC Coagulase Negative Staphylococcus (GC 6257),Staphylococcus sp.; strain GC 6257,1 µg/mL
same,MIC Enterococcus avium (GC 4558),Enterococcus sp.; Enterococcus avium (GC 4558),8 µg/mL
same,MIC Enterococcus faecalis (ATCC 29212),Enterococcus sp.; Enterococcus faecalis (ATCC 29212),8 µg/mL
same,MIC Enterococcus faecalis (GC 2242),Enterococcus sp.; Enterococcus faecalis (GC 2242),4 µg/mL
same,MIC Enterococcus faecalis (GC 2691),Enterococcus sp.; Enterococcus faecalis (GC 2691),8 µg/mL
same,MIC Enterococcus faecalis (GC 3059),Enterococcus sp.; Enterococcus faecalis (GC 3059),8 µg/mL
same,MIC Enterococcus faecalis (GC 4552),Enterococcus sp.; Enterococcus faecalis (GC 4552),8 µg/mL
same,MIC Enterococcus faecalis (GC 4553),Enterococcus sp.; Enterococcus faecalis (GC 4553),8 µg/mL
same,MIC Enterococcus faecalis (GC 4554),Enterococcus sp.; Enterococcus faecalis (GC 4554),8 µg/mL
same,MIC Enterococcus faecalis (GC 6189),Enterococcus sp.; Enterococcus faecalis (GC 6189),8 µg/mL
same,MIC Enterococcus faecium (GC 2243),Enterococcus sp.; Enterococcus faecium (GC 2243),8 µg/mL
same,MIC Enterococcus faecium (GC 4556),Enterococcus sp.; Enterococcus faecium (GC 4556),4 µg/mL
same,MIC Enterococcus faecium (GC 4557),Enterococcus sp.; Enterococcus faecium (GC 4557),4 µg/mL
same,MIC Enterococcus avium (GC 4558),Enterococcus sp.; [3],8 µg/mL
same,MIC Enterococcus faecalis (ATCC 29212),Enterococcus sp.; [3],8 µg/mL
same,MIC Enterococcus faecalis (GC 2242),Enterococcus sp.; [3],4 µg/mL
same,MIC Enterococcus faecalis (GC 2691),Enterococcus sp.; [3],8 µg/mL
same,MIC Enterococcus faecalis (GC 3059),Enterococcus sp.; [3],8 µg/mL
same,MIC Enterococcus faecalis (GC 4552),Enterococcus sp.; [3],8 µg/mL
same,MIC Enterococcus faecalis (GC 4553),Enterococcus sp.; [3],8 µg/mL
same,MIC Enterococcus faecalis (GC 4554),Enterococcus sp.; [3],8 µg/mL
same,MIC Enterococcus faecalis (GC 6189),Enterococcus sp.; [3],8 µg/mL
same,MIC Enterococcus faecium (GC 2243),Enterococcus sp.; [3],8 µg/mL
same,MIC Enterococcus faecium (GC 4556),Enterococcus sp.; [3],4 µg/mL
same,MIC Enterococcus faecium (GC 4557),Enterococcus sp.; [3],4 µg/mL
same,MIC Escherichia coli (ATCC 25922),Escherichia coli; Escherichia coli (ATCC 25922),64 µg/mL
same,MIC Escherichia coli (GC 4559),Escherichia coli; Escherichia coli (GC 4559),32 µg/mL
same,MIC Escherichia coli (GC 4560),Escherichia coli; Escherichia coli (GC 4560),2 µg/mL
same,MIC Streptococcus agalactiae (GC 4564),Streptococcus sp.; Streptococcus agalactiae (GC 4564),1 µg/mL
same,MIC Streptococcus pneumoniae (ATCC 6301),Streptococcus sp.; Streptococcus pneumoniae (ATCC 6301),0.5 µg/mL
same,MIC Streptococcus pneumoniae (GC 1894),Streptococcus sp.; Streptococcus pneumoniae (GC 1894),0.12 µg/mL
same,MIC Streptococcus pneumoniae (GC 4565),Streptococcus sp.; Streptococcus pneumoniae (GC 4565),0.25 µg/mL
same,MIC Streptococcus pyogenes (GC 4563),Streptococcus sp.; Streptococcus pyogenes (GC 4563),0.5 µg/mL
same,MIC Streptococcus agalactiae (GC 4564),Streptococcus sp.; [3],1 µg/mL
same,MIC Streptococcus pneumoniae (ATCC 6301),Streptococcus sp.; [3],0.5 µg/mL
same,MIC Streptococcus pneumoniae (GC 1894),Streptococcus sp.; [3],0.12 µg/mL
same,MIC Streptococcus pneumoniae (GC 4565),Streptococcus sp.; [3],0.25 µg/mL
same,MIC Streptococcus pyogenes (GC 4563),Streptococcus sp.; [3],0.5 µg/mL
